Assay results taken from patent US9670189B2, “Substituted condensed pyrimidine compounds” (GRÜNENTHAL GMBH, priority 2013, dated 2017).

Molecular target: T1, human PDE4B1 (Homo sapiens, UniProt Q07343)
T1 construct: host or cells: Sf9 cells
Test: cAMP HTRF assay to determine the activity of hPDE4B1
Assay type: biochemical
Settings: for inhibition at 1 µM: 1 μM test concentration, human recombinant PDE4B1, cAMP 40 nM, read-out: Inhibition at 1 μM test concentration [%] (Percentage inhibition of PDE4B); for IC50: measured according to the cAMP HTRF hPDE4B1 assay, read-out: PDE4B IC50
Description: cAMP HTRF® Assay to Determine the Activity of hPDE4B1
The inhibiting effect of the compounds on the enzyme activity of human PDE4B1 was measured by the quantification of 5′-adenosine monophosphate (5′-AMP), which is formed from 3′,5′-adenosine monophosphate (cAMP). Human recombinant enzyme, expressed in Sf9 cells, and the HTRF (homogeneous time-resolved fluorescence) detection method were used in the assay.
The test compound or water (control) was mixed with the human recombinant PDE4B1 enzyme (4.8 U) in a buffer consisting of 44.4 mM tris-HCl, 5.28 mM MgCl2, 2.64 mM DTT and 0.044% Tween 20 (pH 7.8). After adding the cAMP enzyme substrate (final concentration 40 nM) the mixture was incubated for 30 minutes at room temperature. Then a fluorescence acceptor (Dye2 marked with cAMP), a fluorescence donor (anti-cAMP antibody marked with a europium cryptate) and the non-specific phosphodiesterase inhibitor IBMX (3-isobutyl-1-methylxanthine; final concentration 1 mM) were added. After 60 minutes the fluorescence transfer, which correlates with the amount of remaining cAMP, was measured with a microplate reader (Rubystar, BMG) at λex=337 nm, λem=620 nm and λem=665 nm. The enzyme activity was calculated from the quotient formed from the measured signal at 665 nm and that at 620 nm. The result was expressed as the percentage inhibition of enzyme activity of the control (without PDE4 inhibitor) (literature: N. Saldou et al., Comparison of recombinant human PDE4 isoforms: interaction with substrate and inhibitors, Cell. Signal. Vol. 10, No. 6, 427-440, 1998). The enzyme was omitted for measurement of the basal control.

T1 sequence (Q07343 whole entry): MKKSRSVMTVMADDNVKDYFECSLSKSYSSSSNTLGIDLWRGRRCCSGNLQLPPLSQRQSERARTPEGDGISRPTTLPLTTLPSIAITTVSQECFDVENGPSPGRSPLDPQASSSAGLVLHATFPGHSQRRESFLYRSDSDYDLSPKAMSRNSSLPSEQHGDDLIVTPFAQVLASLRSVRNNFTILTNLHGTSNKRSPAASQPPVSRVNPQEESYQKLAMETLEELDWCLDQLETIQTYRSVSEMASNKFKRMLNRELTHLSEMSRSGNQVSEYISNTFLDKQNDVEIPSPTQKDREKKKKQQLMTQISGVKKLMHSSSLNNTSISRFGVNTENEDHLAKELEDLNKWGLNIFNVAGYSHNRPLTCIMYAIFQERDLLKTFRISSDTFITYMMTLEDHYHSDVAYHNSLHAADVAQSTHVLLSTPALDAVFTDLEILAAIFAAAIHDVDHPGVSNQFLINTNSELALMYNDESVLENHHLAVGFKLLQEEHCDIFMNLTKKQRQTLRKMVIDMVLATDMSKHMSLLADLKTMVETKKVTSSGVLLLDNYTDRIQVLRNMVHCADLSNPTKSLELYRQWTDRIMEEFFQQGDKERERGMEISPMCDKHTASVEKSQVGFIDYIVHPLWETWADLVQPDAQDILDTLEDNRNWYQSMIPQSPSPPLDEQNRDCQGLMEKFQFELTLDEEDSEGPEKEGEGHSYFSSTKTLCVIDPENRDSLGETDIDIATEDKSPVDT

| inhibition at 1 µM | IC50 | Compound |
| --- | --- | --- |
| 74% |  | COc1ccc(-c2nc3c(c(Oc4ccc(CC(=O)O)cc4)n2)CCC3)cc1F [Compound 1, 2-(4-(2-(3-Fluoro-4-methoxyphenyl)-6,7-dihydro-5H-cyclopenta[d]pyrimidin-4-yloxy)phenyl)acetic acid] |
| 75% |  | COc1ccc(-c2nc3c(c(Oc4ccc(CC(=O)O)cc4)n2)CCC3)cc1Cl [Compound 2, 2-(4-(2-(3-Chloro-4-methoxyphenyl)-6,7-dihydro-5H-cyclopenta[d]pyrimidin-4-yloxy)phenyl)acetic acid] |
| 30% |  | O=C(O)Cc1ccc(Oc2nc(-c3ccc(F)c(F)c3)nc3c2CCC3)cc1 [Compound 3, 2-(4-(2-(3,4-Difluorophenyl)-6,7-dihydro-5H-cyclopenta[d]pyrimidin-4-yloxy)phenyl)acetic acid] |
| 62% |  | COc1ccc(-c2nc3c(c(Oc4ccc(C(=O)O)cc4)n2)CCC3)cc1F [Compound 4, 4-(2-(3-Fluoro-4-methoxyphenyl)-6,7-dihydro-5H-cyclopenta[d]pyrimidin-4-yloxy)benzoic acid] |
| 71% |  | COc1ccc(-c2nc3c(c(Oc4ccc(C(=O)O)cc4)n2)CCC3)cc1Cl [Compound 5, 4-(2-(3-Chloro-4-methoxyphenyl)-6,7-dihydro-5H-cyclopenta[d]pyrimidin-4-yloxy)benzoic acid] |
| 55% |  | O=C(O)c1ccc(Oc2nc(-c3ccc(F)c(F)c3)nc3c2CCC3)cc1 [Compound 6, 4-(2-(3,4-Difluorophenyl)-6,7-dihydro-5H-cyclopenta[d]pyrimidin-4-yloxy)benzoic acid] |
| 77% | < 0.1 µM | O=C(O)Cc1ccc(Oc2nc(-c3ccc(Cl)s3)nc3c2CCC3)cc1 [Compound 7, 2-(4-(2-(5-Chlorothiophen-2-yl)-6,7-dihydro-5H-cyclopenta[d]pyrimidin-4-yloxy)phenyl)acetic acid] |
| 84% |  | O=C(O)c1ccc(Oc2nc(-c3ccc(Cl)s3)nc3c2CCC3)cc1 [Compound 8, 4-(2-(5-Chlorothiophen-2-yl)-6,7-dihydro-5H-cyclopenta[d]pyrimidin-4-yloxy)benzoic acid] |
| 75% |  | O=C(O)Cc1ccc(Cc2nc(-c3ccc(Cl)s3)nc3c2CCC3)cc1 [Compound 9, 2-(4-((2-(5-Chlorothiophen-2-yl)-6,7-dihydro-5H-cyclopenta[d]pyrimidin-4-yl)methyl)phenyl)acetic acid] |
| 49% |  | O=C(O)Cc1ccc(Oc2nc(-c3ccc(Cl)s3)nc3c2CCCC3)cc1 [Compound 10, 2-(4-(2-(5-Chlorothiophen-2-yl)-5,6,7,8-tetrahydroquinazolin-4-yloxy)phenyl)acetic acid] |
| 44% |  | O=C(O)c1ccc(Oc2nc(-c3ccc(Cl)s3)nc3c2CCCC3)cc1 [Compound 11, 4-(2-(5-Chlorothiophen-2-yl)-5,6,7,8-tetrahydroquinazolin-4-yloxy)benzoic acid] |
| 23% |  | O=C(O)Cc1ccc(Oc2nc(-c3ccc(Cl)s3)nc3c2CC(F)(F)CC3)cc1 [Compound 12, 2-(4-(2-(5-Chlorothiophen-2-yl)-6,6-difluoro-5,6,7,8-tetrahydroquinazolin-4-yloxy)phenyl)acetic acid] |
| 72% |  | O=C(O)Cc1ccc(Oc2nc(-c3ccc(O)c(Cl)c3)nc3c2CCC3)cc1 [Compound 13, 2-(4-(2-(3-Chloro-4-hydroxyphenyl)-6,7-dihydro-5H-cyclopenta[d]pyrimidin-4-yloxy)phenyl)acetic acid] |
| 86% | < 0.1 µM | O=C(O)Cc1ccc(Oc2nc(-c3ccc(F)s3)nc3c2CS(=O)(=O)C3)cc1 [Compound 15, 2-[4-[[2-(5-Fluoro-thiophen-2-yl)-6,6-dioxo-5,7-dihydro-thieno[3,4-d]pyrimidin-4-yl]oxy]-phenyl]-acetic acid] |
| 89% | < 0.1 µM | COc1ccc(-c2nc3c(c(Oc4ccc(CC(=O)O)cc4)n2)CS(=O)(=O)C3)cc1F [Compound 16, 2-[4-[[2-(3-Fluoro-4-methoxy-phenyl)-6,6-dioxo-5,7-dihydro-thieno[3,4-d]pyrimidin-4-yl]oxy]-phenyl]-acetic acid] |
| 95% | < 0.1 µM | COc1ccc(-c2nc3c(c(Oc4ccc(CC(=O)O)cc4)n2)CS(=O)(=O)C3)cc1Cl [Compound 17, 2-[4-[[2-(3-Chloro-4-methoxy-phenyl)-6,6-dioxo-5,7-dihydro-thieno[3,4-d]pyrimidin-4-yl]oxy]-phenyl]-acetic acid] |

| inhibition at 1 µM | IC50 | Compound |
| --- | --- | --- |
| 112% | < 0.1 µM | COc1ccc(-c2nc3c(c(Oc4ccc(CC(=O)O)cc4)n2)CS(=O)(=O)C3)cc1 [Compound 18, 2-[4-[[2-(4-Methoxyphenyl)-6,6-dioxo-5,7-dihydro-thieno[3,4-d]pyrimidin-4-yl]oxy]-phenyl]-acetic acid] |
| 98% | < 0.1 µM | O=C(O)Cc1ccc(Oc2nc(-c3ccc(Cl)s3)nc3c2CSC3)cc1 [Compound 19, 2-(4-(2-(5-Chlorothiophen-2-yl)-5,7-dihydrothieno[3,4-d]pyrimidin-4-yloxy)phenyl)acetic acid] |
| 103% | < 0.1 µM | O=C(O)Cc1ccc(Oc2nc(-c3ccc(Cl)s3)nc3c2C[S+]([O-])C3)cc1 (stereo not shown) [Compound 20, 2-[4-[[2-(5-Chloro-thiophen-2-yl)-6-oxo-5,7-dihydro-thieno[3,4-d]pyrimidin-4-yl]oxy]-phenyl]-acetic acid] |
| 91% | < 0.1 µM | O=C(O)Cc1ccc(Oc2nc(-c3ccc(Cl)s3)nc3c2CS(=O)(=O)C3)cc1 [Compound 21, 2-[4-[[2-(5-Chloro-thiophen-2-yl)-6,6-dioxo-5,7-dihydro-thieno[3,4-d]pyrimidin-4-yl]oxy]-phenyl]-acetic acid] |
| 50% |  | O=C(O)Cc1ccc(Oc2nc(-c3ccc(Cl)s3)nc3c2CSCC3)cc1 [Compound 22, 2-(4-(2-(5-Chlorothiophen-2-yl)-7,8-dihydro-5H-thiopyrano[4,3-d]pyrimidin-4-yloxy)phenyl)acetic acid] |
| 18% |  | O=C(O)Cc1ccc(Oc2nc(-c3ccc(Cl)s3)nc3c2C[S+]([O-])CC3)cc1 (stereo not shown) [Compound 23, 2-[4-[[2-(5-Chloro-thiophen-2-yl)-6-oxo-7,8-dihydro-5H-thiopyrano[4,3-d]pyrimidin-4-yl]oxy]-phenyl]-acetic acid] |
| 33% |  | O=C(O)Cc1ccc(Oc2nc(-c3ccc(Cl)s3)nc3c2CS(=O)(=O)CC3)cc1 [Compound 24, 2-[4-[[2-(5-Chloro-thiophen-2-yl)-6,6-dioxo-7,8-dihydro-5H-thiopyrano[4,3-d]pyrimidin-4-yl]oxy]-phenyl]-acetic acid] |
| 55% |  | O=C(O)Cc1ccc(Oc2nc(-c3cncs3)nc3c2CCC3)cc1 [Compound 45, 2-(4-(2-(Thiazol-5-yl)-6,7-dihydro-5H-cyclopenta[d]pyrimidin-4-yloxy)phenyl)acetic acid] |
| 76% |  | O=C(O)Cc1ccc(Oc2nc(-c3cnc(Cl)s3)nc3c2CCC3)cc1 [Compound 46, 2-(4-(2-(2-Chlorothiazol-5-yl)-6,7-dihydro-5H-cyclopenta[d]pyrimidin-4-yloxy)phenyl)acetic acid] |
| 79% |  | NC(=O)c1ccc(-c2nc3c(c(Oc4ccc(CC(=O)O)cc4)n2)CCC3)s1 [Compound 47, 2-(4-(2-(5-Carbamoylthiophen-2-yl)-6,7-dihydro-5H-cyclopenta[d]pyrimidin-4-yloxy)phenyl)acetic acid] |
| 78% |  | N#Cc1ccc(-c2nc3c(c(Oc4ccc(CC(=O)O)cc4)n2)CCC3)s1 [Compound 48, 2-(4-(2-(5-Cyanothiophen-2-yl)-6,7-dihydro-5H-cyclopenta[d]pyrimidin-4-yloxy)phenyl)acetic acid] |
| 59% |  | O=C(O)Cc1ccc(Oc2nc(-c3ccc(Br)s3)nc3c2CCC3)cc1 [Compound 49, 2-(4-(2-(5-Bromothiophen-2-yl)-6,7-dihydro-5H-cyclopenta[d]pyrimidin-4-yloxy)phenyl)acetic acid] |
| 47% |  | Cc1sc(-c2nc3c(c(Oc4ccc(CC(=O)O)cc4)n2)CCC3)cc1Br [Compound 50, 2-(4-(2-(4-Bromo-5-methylthiophen-2-yl)-6,7-dihydro-5H-cyclopenta[d]pyrimidin-4-yloxy)phenyl)acetic acid] |
| 84% |  | CSc1ccc(-c2nc3c(c(Oc4ccc(CC(=O)O)cc4)n2)CCC3)s1 [Compound 51, 2-(4-(2-(5-(Methylthio)thiophen-2-yl)-6,7-dihydro-5H-cyclopenta[d]pyrimidin-4-yloxy)phenyl)acetic acid] |
| 53% |  | CS(=O)(=O)c1ccc(-c2nc3c(c(Oc4ccc(CC(=O)O)cc4)n2)CCC3)s1 [Compound 52, 2-(4-(2-(5-(Methylsulfonyl)thiophen-2-yl)-6,7-dihydro-5H-cyclopenta[d]pyrimidin-4-yloxy)phenyl)acetic acid] |
| 51% |  | O=C(O)Cc1ccc(Oc2nc(-c3ccc(Br)cc3)nc3c2CCC3)cc1 [Compound 53, 2-(4-((2-(4-Bromophenyl)-6,7-dihydro-5H-cyclopenta[d]pyrimidin-4-yl)oxy)phenyl)acetic acid] |
